Tests used:
[1] = tested on: Gb. stearothermophilus spores on a polypropylene carrier; assay: Change in fluorescence of biological indicators after lethal and sub-lethal sterilization cycles (Example 4); format: cell-based; details: 485/530 nm, 1×E5 spores, 1:5000 dye, incubated 50° C.
Experimental: Eighty biological indicators (BIs) were prepared by coating a suspension of Gb. stearothermophilus spores at a concentration of 1×E5 on a polypropylene carrier. Following drying at 37° C. for 20 min, the BIs were exposed to commonly used sterilization conditions as described below in Tables 4a, 4b, and 4c. Following sterilization the BIs were activated with a medium, exposed to the same sterilization conditions as the spores and containing of a 1:5000 dilution of Acridine Orange along with glucose, fructose, and potassium chloride in water (1 mg/ml, 1 mg/ml, and 3.3 mgs/ml, respectively), 0.02 M alanine, 0.01 M valine, 0.002 M isoleucine, 0.2 mg/ml inosine, and a small amount of Bromo Cresol Purple. The combination of the medium with the spores on the carrier, subjected to lethal and sub-lethal sterilization processes shown in Tables 4a-4c, was incubated at 50° C. for 60 min, and fluorescence intensity readings were taken at 30 and 60 min using excitation at 485 nm and emission at 530 nm.

[2] = tested on: spores; assay: Fluorescence over a range of dye concentrations with decreasing concentrations of spores (Example 5); format: cell-based, Gb. stearothermophilus; details: for Fluorescence intensity (normalized): ex 485/em 530 nm, 50° C.
Experimental: Dilutions were prepared using Sterile Water For Irrigation (Baxter, Deerfield, Ill.) and tested at a final population ranging between of 1×10^6 and 0 spores. The spore dilutions (100 microlitres) were combined with 200 microlitres of medium, consisting of Acridine Orange and nutrients as described in Example 1, with Acridine Orange concentrations at 1:5000 (0.0066 mM), 1:1000 (0.033 mM) and 1:500 (0.066 mM), each of the resulting mixtures was added to a well of a plate. The plate was subsequently placed in a preheated plate reader (BioTek Synergy 4 plate reader, Winooski, Vt.) at 50° C. and incubated for 60 min, during which fluorescence intensity readings were taken using excitation at 485 nm and emission at 530 nm. A summary of the normalized data is listed below in Table 5a-5c.

[3] = 1 min in 132° C. (270° F.) Gravity Cycle, AMSCO EAGLE Model 2013 Steam Sterilizer
[4] = 1 min in 132° C. (270° F.) Vacuum Assisted Cycle, Joslyn BIER Vessel
[5] = 3 min in 132° C. (270° F.) Gravity Cycle, AMSCO EAGLE Model 2013 Steam Sterilizer
[6] = 3 min in 132° C. (270° F.) Vacuum Assisted Cycle, Joslyn BIER Vessel
[7] = 5 min in 121° C. (250° F.) Vacuum Assisted Cycle, Joslyn BIER Vessel
[8] = 15 min in 121° C. (250° F.) Vacuum Assisted Cycle, Joslyn BIER Vessel

With `CN(C)c1ccc2cc3ccc(N(C)C)cc3nc2c1` [Acridine Orange] the “Average Change in Fluorescence at 30 min” value [1, 3] was 1462, the “Average Change in Fluorescence at 60 min” value [1, 3] was 1808 and the “Average Change in Fluorescence at 30 min” value [1, 4] was 2607. For the same compound, the “Average Change in Fluorescence at 60 min” value [1, 4] was 2762, the “Average Change in Fluorescence at 30 min” value [1, 5] was 201 and the “Average Change in Fluorescence at 60 min” value [1, 5] was 22. The “Average Change in Fluorescence at 30 min” value [1, 6] was 279, the “Average Change in Fluorescence at 60 min” value [1, 6] was 386 and the “Average Change in Fluorescence at 30 min” value [1, 7] was 2774. The “Average Change in Fluorescence at 60 min” value [1, 7] was 3347, the “Average Change in Fluorescence at 30 min” value [1, 8] was 383 and the “Average Change in Fluorescence at 60 min” value [1, 8] was 353. For the same compound, the “Dependence of signal on dye concentration” value ([2]; 0.0066, 0.033, 0.066 mM) was “the higher the signal”, the “Detection of spores (lowest spore population shown)” value ([2]; all Acridine Orange concentrations (0.0066, 0.033, 0.066 mM)) was “Detection of E3 spores was shown” and the “Fluorescence intensity (normalized)” value ([2]; dye 0.0066 mM with nutrients, 0 spores, 0:00:00) was 0. The “Fluorescence intensity (normalized)” value ([2]; dye 0.0066 mM with nutrients, 0 spores, 0:15:00) was 711, the “Fluorescence intensity (normalized)” value ([2]; dye 0.0066 mM with nutrients, 0 spores, 0:30:00) was 886.5 and the “Fluorescence intensity (normalized)” value ([2]; dye 0.0066 mM with nutrients, 0 spores, 0:45:00) was 1027. The “Fluorescence intensity (normalized)” value ([2]; dye 0.0066 mM with nutrients, 0 spores, 1:00:00) was 1147.5, the “Fluorescence intensity (normalized)” value ([2]; dye 0.0066 mM with nutrients, E3 spores, 0:00:00) was 0 and the “Fluorescence intensity (normalized)” value ([2]; dye 0.0066 mM with nutrients, E3 spores, 0:15:00) was 2033. For the same compound, the “Fluorescence intensity (normalized)” value ([2]; dye 0.0066 mM with nutrients, E3 spores, 0:30:00) was 2271.5, the “Fluorescence intensity (normalized)” value ([2]; dye 0.0066 mM with nutrients, E3 spores, 0:45:00) was 2396 and the “Fluorescence intensity (normalized)” value ([2]; dye 0.0066 mM with nutrients, E3 spores, 1:00:00) was 2484.5. For the same compound, the “Fluorescence intensity (normalized)” value ([2]; dye 0.0066 mM with nutrients, E4 spores, 0:00:00) was 0, the “Fluorescence intensity (normalized)” value ([2]; dye 0.0066 mM with nutrients, E4 spores, 0:15:00) was 3754.5 and the “Fluorescence intensity (normalized)” value ([2]; dye 0.0066 mM with nutrients, E4 spores, 0:30:00) was 4088. The “Fluorescence intensity (normalized)” value ([2]; dye 0.0066 mM with nutrients, E4 spores, 0:45:00) was 4174, the “Fluorescence intensity (normalized)” value ([2]; dye 0.0066 mM with nutrients, E4 spores, 1:00:00) was 4268 and the “Fluorescence intensity (normalized)” value ([2]; dye 0.0066 mM with nutrients, E5 spores, 0:00:00) was 0. The “Fluorescence intensity (normalized)” value ([2]; dye 0.0066 mM with nutrients, E5 spores, 0:15:00) was 5224, the “Fluorescence intensity (normalized)” value ([2]; dye 0.0066 mM with nutrients, E5 spores, 0:30:00) was 5364 and the “Fluorescence intensity (normalized)” value ([2]; dye 0.0066 mM with nutrients, E5 spores, 0:45:00) was 5373. For the same compound, the “Fluorescence intensity (normalized)” value ([2]; dye 0.0066 mM with nutrients, E5 spores, 1:00:00) was 5406, the “Fluorescence intensity (normalized)” value ([2]; dye 0.0066 mM with nutrients, E6 spores, 0:00:00) was 0 and the “Fluorescence intensity (normalized)” value ([2]; dye 0.0066 mM with nutrients, E6 spores, 0:15:00) was 12024.5. The “Fluorescence intensity (normalized)” value ([2]; dye 0.0066 mM with nutrients, E6 spores, 0:30:00) was 15320, the “Fluorescence intensity (normalized)” value ([2]; dye 0.0066 mM with nutrients, E6 spores, 0:45:00) was 16514.5 and the “Fluorescence intensity (normalized)” value ([2]; dye 0.0066 mM with nutrients, E6 spores, 1:00:00) was 17130.5. For the same compound, the “Fluorescence intensity (normalized)” value ([2]; dye 0.033 mM with nutrients, 0 spores, 0:00:00) was 0, the “Fluorescence intensity (normalized)” value ([2]; dye 0.033 mM with nutrients, 0 spores, 0:15:00) was 740 and the “Fluorescence intensity (normalized)” value ([2]; dye 0.033 mM with nutrients, 0 spores, 0:30:00) was 958. For the same compound, the “Fluorescence intensity (normalized)” value ([2]; dye 0.033 mM with nutrients, 0 spores, 0:45:00) was 1143.5, the “Fluorescence intensity (normalized)” value ([2]; dye 0.033 mM with nutrients, 0 spores, 1:00:00) was 1280 and the “Fluorescence intensity (normalized)” value ([2]; dye 0.033 mM with nutrients, E3 spores, 0:00:00) was 0. For the same compound, the “Fluorescence intensity (normalized)” value ([2]; dye 0.033 mM with nutrients, E3 spores, 0:15:00) was 2022.5, the “Fluorescence intensity (normalized)” value ([2]; dye 0.033 mM with nutrients, E3 spores, 0:30:00) was 2281 and the “Fluorescence intensity (normalized)” value ([2]; dye 0.033 mM with nutrients, E3 spores, 0:45:00) was 2437. The “Fluorescence intensity (normalized)” value ([2]; dye 0.033 mM with nutrients, E3 spores, 1:00:00) was 2558.5, the “Fluorescence intensity (normalized)” value ([2]; dye 0.033 mM with nutrients, E4 spores, 0:00:00) was 0 and the “Fluorescence intensity (normalized)” value ([2]; dye 0.033 mM with nutrients, E4 spores, 0:15:00) was 3467. The “Fluorescence intensity (normalized)” value ([2]; dye 0.033 mM with nutrients, E4 spores, 0:30:00) was 3640.5, the “Fluorescence intensity (normalized)” value ([2]; dye 0.033 mM with nutrients, E4 spores, 0:45:00) was 3724 and the “Fluorescence intensity (normalized)” value ([2]; dye 0.033 mM with nutrients, E4 spores, 1:00:00) was 3810.5. The “Fluorescence intensity (normalized)” value ([2]; dye 0.033 mM with nutrients, E5 spores, 0:00:00) was 0, the “Fluorescence intensity (normalized)” value ([2]; dye 0.033 mM with nutrients, E5 spores, 0:15:00) was 5012 and the “Fluorescence intensity (normalized)” value ([2]; dye 0.033 mM with nutrients, E5 spores, 0:30:00) was 5029. The “Fluorescence intensity (normalized)” value ([2]; dye 0.033 mM with nutrients, E5 spores, 0:45:00) was 4999, the “Fluorescence intensity (normalized)” value ([2]; dye 0.033 mM with nutrients, E5 spores, 1:00:00) was 5068 and the “Fluorescence intensity (normalized)” value ([2]; dye 0.033 mM with nutrients, E6 spores, 0:00:00) was 0. The “Fluorescence intensity (normalized)” value ([2]; dye 0.033 mM with nutrients, E6 spores, 0:15:00) was 14427.5, the “Fluorescence intensity (normalized)” value ([2]; dye 0.033 mM with nutrients, E6 spores, 0:30:00) was 19073.5 and the “Fluorescence intensity (normalized)” value ([2]; dye 0.033 mM with nutrients, E6 spores, 0:45:00) was 20802.5. For the same compound, the “Fluorescence intensity (normalized)” value ([2]; dye 0.033 mM with nutrients, E6 spores, 1:00:00) was 21688, the “Fluorescence intensity (normalized)” value ([2]; dye 0.066 mM with nutrients, 0 spores, 0:00:00) was 0.0 and the “Fluorescence intensity (normalized)” value ([2]; dye 0.066 mM with nutrients, 0 spores, 0:15:00) was 815.5. The “Fluorescence intensity (normalized)” value ([2]; dye 0.066 mM with nutrients, 0 spores, 0:30:00) was 1026.0, the “Fluorescence intensity (normalized)” value ([2]; dye 0.066 mM with nutrients, 0 spores, 0:45:00) was 1184.5 and the “Fluorescence intensity (normalized)” value ([2]; dye 0.066 mM with nutrients, 0 spores, 1:00:00) was 1287.5. For the same compound, the “Fluorescence intensity (normalized)” value ([2]; dye 0.066 mM with nutrients, E3 spores, 0:00:00) was 0.0, the “Fluorescence intensity (normalized)” value ([2]; dye 0.066 mM with nutrients, E3 spores, 0:15:00) was 3420.0 and the “Fluorescence intensity (normalized)” value ([2]; dye 0.066 mM with nutrients, E3 spores, 0:30:00) was 3716.0. For the same compound, the “Fluorescence intensity (normalized)” value ([2]; dye 0.066 mM with nutrients, E3 spores, 0:45:00) was 3902.5, the “Fluorescence intensity (normalized)” value ([2]; dye 0.066 mM with nutrients, E3 spores, 1:00:00) was 4000.5 and the “Fluorescence intensity (normalized)” value ([2]; dye 0.066 mM with nutrients, E4 spores, 0:00:00) was 0.0. The “Fluorescence intensity (normalized)” value ([2]; dye 0.066 mM with nutrients, E4 spores, 0:15:00) was 3261.5, the “Fluorescence intensity (normalized)” value ([2]; dye 0.066 mM with nutrients, E4 spores, 0:30:00) was 3464.0 and the “Fluorescence intensity (normalized)” value ([2]; dye 0.066 mM with nutrients, E4 spores, 0:45:00) was 3586.5. The “Fluorescence intensity (normalized)” value ([2]; dye 0.066 mM with nutrients, E4 spores, 1:00:00) was 3626.5, the “Fluorescence intensity (normalized)” value ([2]; dye 0.066 mM with nutrients, E5 spores, 0:00:00) was 0.0 and the “Fluorescence intensity (normalized)” value ([2]; dye 0.066 mM with nutrients, E5 spores, 0:15:00) was 3422.5. For the same compound, the “Fluorescence intensity (normalized)” value ([2]; dye 0.066 mM with nutrients, E5 spores, 0:30:00) was 3533.0, the “Fluorescence intensity (normalized)” value ([2]; dye 0.066 mM with nutrients, E5 spores, 0:45:00) was 3606.0 and the “Fluorescence intensity (normalized)” value ([2]; dye 0.066 mM with nutrients, E5 spores, 1:00:00) was 3616.0. The “Fluorescence intensity (normalized)” value ([2]; dye 0.066 mM with nutrients, E6 spores, 0:00:00) was 0.0, the “Fluorescence intensity (normalized)” value ([2]; dye 0.066 mM with nutrients, E6 spores, 0:15:00) was 13727.5 and the “Fluorescence intensity (normalized)” value ([2]; dye 0.066 mM with nutrients, E6 spores, 0:30:00) was 15331.5. The “Fluorescence intensity (normalized)” value ([2]; dye 0.066 mM with nutrients, E6 spores, 0:45:00) was 15529.5 and the “Fluorescence intensity (normalized)” value ([2]; dye 0.066 mM with nutrients, E6 spores, 1:00:00) was 15629.0.

— patent US20110200992A1, “Biological Compositions, Articles and Methods for Monitoring Sterilization Processes” (priority 2008, published 2011)
